Read-outs that look alike come from different tables or passages of the source.

In assay [1] the test system is pBR322 plasmid. More on the design: method as in PMID 27008800. The settings on record: same conditions; cited from earlier work.
Assay [2] concerns poly(dG-dC)2 (DNA, polymer) GC. Description: ethidium bromide displacement fluorescence. The settings on record: Na+ 1 M; 0.1 M Tris pH 8.0, room temperature; ethidium displaced; apparent.
Assay [3] relates to pBR322 plasmid. Description: Ethidium bromide assay, DNA-binding effects on plasmid pBR322. The settings on record: for Decrease of Fluorescence: 10 μM compound, plasmid pBR322 with ethidium bromide, 25 °C 30 min, % fluorescence relative to controls (no drug = 100%); for Binding to DNA (pBR322 plasmid), in words: ethidium bromide assay. As for the experimental part:
Each well of a 96-well plate was loaded with Tris buffer containing ethidium bromide (0.1 M Tris, 1 M NaCl, pH 8.0, 0.5 mM EtBr final concentration, 100 μL). […] Fluorescence readings are reported as % fluorescence relative to the controls.

In assay [4] the test system is poly(dG-dC)2. Description: Ethidium displacement assay, DNA-binding constants. The settings on record: apparent association constant. As for the experimental part:
(§1) The fluorescence of DNA solutions (calf thymus DNA, T4 coliphage DNA, poly(dA-dT)2, and poly(dG-dC)2 with the investigated compound (final concentrations 10, 50, 100 µM) was measured by the fluorescence spectrophotometer Infinite M200 TECAN at room temperature according to the procedure described above. Then, the concentration, which reduced fluorescence to 50% was determined for each compound. The data points of fluorescence intensity were fitted to the theoretical curves, with one or two different iterative nonlinear least squares computer routines. The apparent binding constant was calculated from KEtBr [EtBr] = Kapp [drug], where [drug] = the concentration of the tested compound at 50% reduction of fluorescence and KEtBr and [EtBr] are known. TMP and MTX were also investigated.

For assay [5], the system named is T4 coliphage DNA. Description: Ethidium displacement assay, DNA-binding constants. The settings on record: apparent association constant. How it is done: as §1
For assay [6], the system named is calf thymus DNA. Nature of the assay: Ethidium displacement assay, DNA-binding constants. The settings on record: apparent association constant. As for the experimental part: as §1
Assay [7] relates to poly(dA-dT)2. Nature of the assay: Ethidium displacement assay, DNA-binding constants. The settings on record: apparent association constant. How it is done:
as §1

In assay [8] the test system is poly(dA-dT)2 (DNA, polymer) AT. Description: ethidium bromide displacement fluorescence. The settings on record: Na+ 1 M; 0.1 M Tris pH 8.0, room temperature; ethidium displaced; apparent.
In assay [9] the target is T1, recombinant human DHFR enzyme (Homo sapiens, UniProt P00374).
T1 construct: purchased
T1 sequence (P00374 1-187): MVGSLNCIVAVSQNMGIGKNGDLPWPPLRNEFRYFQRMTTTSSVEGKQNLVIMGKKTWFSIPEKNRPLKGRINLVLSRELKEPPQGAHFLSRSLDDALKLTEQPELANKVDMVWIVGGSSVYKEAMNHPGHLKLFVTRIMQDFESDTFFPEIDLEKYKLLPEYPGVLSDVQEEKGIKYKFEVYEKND
Description: Dihydrofolate reductase (DHFR) inhibition assay. In kind it is biochemical. The settings on record: pH 7.5, 22 °C, absorbance 340 nm. As for the experimental part:
The procedure for detection of DHFR activity inhibition included preparation of a test mixture in a 1.0 mL quartz cuvette for the spectrophotometric method. Assay buffer—1× for DHFR (pH 7.5) and 1.5 × 10^−3 units of DHFR were added to the appropriate tube and thoroughly mixed. […] After mixing accurately, the reaction was initiated by adding 10 mM dihydrofolic acid (5 µL for each reaction) and a kinetics program was immediately started. The changes in absorbance (ΔOD/ min) were measured by the spectrophotometer Specord 200Plus (Analytikjena, Germany) at 340 nm and 22 °C, and the kinetic program (reading every 15 s for 2.5 min) according to the instructions supplied with the set and recommended by the producer.

In assay [10] the test system is poly(dA-dT)2. More on the design: method as in PMID 2540332. The settings on record: KEtBr, known constant of ethidium bromide; cited from earlier work.
Assay [11] deals with poly(dG-dC)2. Also noted: method as in PMID 2540332. The settings on record: KEtBr, known constant of ethidium bromide; cited from earlier work.
Assay [12] relates to T4 coliphage DNA. More on the design: method as in PMID 2540332. The settings on record: KEtBr, known constant of ethidium bromide; cited from earlier work.
Assay [13] relates to calf thymus DNA. More on the design: method as in PMID 2540332. The settings on record: KEtBr, known constant of ethidium bromide; cited from earlier work.
The subject of the next assay is hDHFR. More on the design: method as in PMID 28152430. The settings on record: Wang's compounds; read-out: IC50 (Figure 1); cited from earlier work.
Another assay concerns DHFR. Also noted: method as in PMID 30991189. The settings on record: cited from earlier work.
The next assay deals with human DHFR (hDHFR). The settings on record: relative to TMP; cited from earlier work.
[14] abbreviates: read-out: DHFR inhibitory potency IC50.
Where [15] appears, read: Sabry's compounds, read-out: IC50 (Figure 1).

`Cn1cc(NC(=O)c2cc(NC(=O)CN=C(N)N)cn2C)cc1C(=O)NCCC(=N)N` [NT, netropsin, reference compound]: the “DNA-binding effect (fluorescence)” value with pBR322 plasmid [1] is recorded as 74%. In addition, the Kapp was 250000 M⁻¹ in [2] and 8.75e+07 M⁻¹ in assay [8]. Moreover, in the assay on pBR322 plasmid [3], the “Decrease of Fluorescence” value stood at 74%. For the same molecule, the “Kapp Poly (dG-dC)2” value in the assay with poly(dG-dC)2 [4] was 250000 M⁻¹. For the same molecule, the “Kapp T4 DNA” value in the assay on T4 coliphage DNA [5] is 830000 M⁻¹. Also, the “Kapp Calf Thymus DNA” value in the assay with calf thymus DNA [6] was 870000 M⁻¹. Moreover, the “Kapp Poly (dA-dT)2” value with poly(dA-dT)2 [7] stood at 8.75e+07 M⁻¹.

Regarding `COc1cc(C(=O)Nc2ccc(N)cc2)cc(OC)c1OC` [Compound 4, N-(4-Aminophenyl)-3,4,5-Trimethoxybenzamide], the Kapp is on record as 1.6 ± 0.2 × 10^5 M^-1 in [2] and 7.9 ± 0.2 × 10^5 M^-1 in assay [8]. For the same molecule, the “Decrease of Fluorescence” value in the assay on pBR322 plasmid [3] stood at 80.43%. Further, the “Kapp Poly (dG-dC)2” value in the assay with poly(dG-dC)2 [4] was found to be 160000 M⁻¹. Also, in the assay on T4 coliphage DNA [5], the “Kapp T4 DNA” value amounted to 390000 M⁻¹. For the same molecule, the “Kapp Calf Thymus DNA” value in the assay with calf thymus DNA [6] amounted to 590000 M⁻¹. The “Kapp Poly (dA-dT)2” value in the assay on poly(dA-dT)2 [7] came to 790000 M⁻¹. For the same molecule, the 50% inhibitory concentration (IC50) (as a rule, the point on the concentration scale where inhibition reaches its midpoint) in [9] is 1.02 µM.

`COc1cc(CC(=O)Nc2cnc(N)nc2)cc(OC)c1OC` [Compound 2, N-(2-Aminopyrimidin-5-yl)-2-(3,4,5-Trimethoxyphenyl)Acetamide]: the Kapp in [2] is 0.8 ± 0.2 × 10^5 M^-1; in assay [8], 3.9 ± 0.2 × 10^5 M^-1. Moreover, in the assay with pBR322 plasmid [3], the “Decrease of Fluorescence” value came to 45.18%. Moreover, the “Kapp Poly (dG-dC)2” value in the assay on poly(dG-dC)2 [4] stood at 80000 M⁻¹. In the assay on T4 coliphage DNA [5], the “Kapp T4 DNA” value came out at 110000 M⁻¹. In addition, the “Kapp Calf Thymus DNA” value in the assay on calf thymus DNA [6] came to 440000 M⁻¹. In the assay with poly(dA-dT)2 [7], the “Kapp Poly (dA-dT)2” value worked out at 390000 M⁻¹. Also, the IC50 in assay [9] turned out to be 0.99 µM.

As for `CC[n+]1c(-c2ccccc2)c2cc(N)ccc2c2ccc(N)cc21` [EtBr, Ethidium bromide], in the assay on poly(dA-dT)2 [10], the “Kapp Poly (dA-dT)2” value is on record as 95 ^b* × 10^5 M^−1. Besides, the “Kapp Poly (dG-dC)2” value in the assay on poly(dG-dC)2 [11] is 9.9e+06 M⁻¹. Besides, the “Kapp T4 DNA” value with T4 coliphage DNA [12] was 1e+07 M⁻¹. Moreover, the “Kapp Calf Thymus DNA” value with calf thymus DNA [13] is 1e+07 M⁻¹.

With `COc1cccc(CCc2ccc3nc(N)nc(N)c3n2)c1` [G], the IC50 in the assay with hDHFR was 450 µM.

`COc1ccc(CCc2ccc3nc(N)nc(N)c3n2)cc1` [F]: the IC50 is 760 µM in the assay on hDHFR and 200 nM with DHFR (setting [14]).

Regarding `COc1cc(CCC(=O)Nc2cnc(N)nc2)cc(OC)c1OC` [Compound 3, N-(2-Aminopyrimidin-5-yl)-3-(3,4,5-Trimethoxyphenyl)Propanamide], the Kapp in [2] was 0.5 ± 0.2 × 10^5 M^-1; in assay [8] it was 3.6 ± 0.2 × 10^5 M^-1. Besides, the “Decrease of Fluorescence” value with pBR322 plasmid [3] stood at 69.92%. Also, the “Kapp Poly (dG-dC)2” value in the assay with poly(dG-dC)2 [4] was found to be 50000 M⁻¹. In the assay with T4 coliphage DNA [5], the “Kapp T4 DNA” value came out at 780000 M⁻¹. Further, the “Kapp Calf Thymus DNA” value in the assay on calf thymus DNA [6] turned out to be 370000 M⁻¹. For the same molecule, the “Kapp Poly (dA-dT)2” value with poly(dA-dT)2 [7] amounted to 360000 M⁻¹.

On to `COc1cc(CCC(=O)Nc2ccc(N)cc2)cc(OC)c1OC` [Compound 6, N-(4-Aminophenyl)-3-(3,4,5-Trimethoxyphenyl)Propanamide], for which the results for the Kapp in assay [2] and in assay [8] were 1.1 ± 0.2 × 10^5 M^-1 and 4.2 ± 0.2 × 10^5 M^-1, respectively. Besides, the “Decrease of Fluorescence” value with pBR322 plasmid [3] was 71.43%. Besides, in the assay with poly(dG-dC)2 [4], the “Kapp Poly (dG-dC)2” value came out at 110000 M⁻¹. For the same molecule, the “Kapp T4 DNA” value in the assay on T4 coliphage DNA [5] stood at 90000 M⁻¹. Besides, in the assay with calf thymus DNA [6], the “Kapp Calf Thymus DNA” value was 460000 M⁻¹. The “Kapp Poly (dA-dT)2” value in the assay with poly(dA-dT)2 [7] amounted to 420000 M⁻¹. In assay [9], the IC50 came out at 15.1 µM.

Regarding `COc1cc(Cc2cnc(N)nc2N)cc(OC)c1OC` [TMP, 2,4-diamino-5-(3,4,5-trimethoxybenzyl) pyrimidine, reference compound], in the assay on pBR322 plasmid [3], the “Decrease of Fluorescence” value is recorded as 100% and the “Binding to DNA (pBR322 plasmid), in words” value is on record as “do not bind to DNA”.

Regarding `COc1cc(CC(=O)Nc2ccc(N)cc2)cc(OC)c1OC` [Compound 5, N-(4-Aminophenyl)-2-(3,4,5 Trimethoxyphenyl)Acetamide], the Kapp in assay [2] was 3.0 ± 0.2 × 10^5 M^-1; in [8], 14 ± 0.2 × 10^5 M^-1. The “Decrease of Fluorescence” value in the assay with pBR322 plasmid [3] is 69.17%. For the same molecule, the “Kapp Poly (dG-dC)2” value in the assay with poly(dG-dC)2 [4] came to 300000 M⁻¹. The “Kapp T4 DNA” value with T4 coliphage DNA [5] amounted to 680000 M⁻¹. Besides, the “Kapp Calf Thymus DNA” value in the assay with calf thymus DNA [6] amounted to 520000 M⁻¹. The “Kapp Poly (dA-dT)2” value in the assay with poly(dA-dT)2 [7] stood at 1.4e+06 M⁻¹. In assay [9], the 50% inhibitory concentration (IC50) came to 15.9 µM.

On to `CCc1nc(N)nc(N)c1C#CCc1cc(OC)c(OC)c(OC)c1` [C], for which, in the assay on human DHFR (hDHFR), the “potency greater than TMP” value is on record as 3500 fold.

Regarding `COc1ccc(-n2c(SC)nc3ccc(NC(=O)C4CCCS4)cc3c2=O)cc1` (stereo not drawn) [E], the 50% inhibitory concentration (IC50) with DHFR (setting [15]) was 200000 nM.

On to `COc1cc(C(=O)Nc2cnc(N)nc2)cc(OC)c1OC` [Compound 1, N-(2-Aminopyrimidin-5-yl)-3,4,5-Trimethoxybenzamide], for which the Kapp was 1.3 ± 0.2 × 10^5 M^-1 in [2] and 11.7 ± 0.2 × 10^5 M^-1 in assay [8]. In addition, the “Decrease of Fluorescence” value in the assay with pBR322 plasmid [3] came out at 71.43%. Besides, the “Kapp Poly (dG-dC)2” value in the assay on poly(dG-dC)2 [4] is 130000 M⁻¹. In addition, in the assay with T4 coliphage DNA [5], the “Kapp T4 DNA” value stood at 290000 M⁻¹. The “Kapp Calf Thymus DNA” value in the assay on calf thymus DNA [6] is 240000 M⁻¹. The “Kapp Poly (dA-dT)2” value with poly(dA-dT)2 [7] came to 1.17e+06 M⁻¹. In assay [9], the half-inhibitory concentration (IC50) is 21.8 µM.

As for `COc1cc(CCc2ccc3nc(N)nc(N)c3n2)cc(OC)c1OC` [H], in the assay with hDHFR, the IC50 is 290 µM.

Turning to `COc1ccc(C(=O)Nc2ccc3nc(SC)n(-c4ccc(OC)cc4)c(=O)c3c2)cc1` [D], the IC50 with DHFR (setting [15]) was 200000 nM; in the assay on DHFR (setting [14]) it was 200 nM.

Regarding `CN(Cc1cnc2nc(N)nc(N)c2n1)c1ccc(C(=O)N[C@@H](CCC(=O)O)C(=O)O)cc1` [MTX, methotrexate, reference compound], in the assay on pBR322 plasmid [3], the “Decrease of Fluorescence” value stood at 100% and the “Binding to DNA (pBR322 plasmid), in words” value was “do not bind to DNA”. The IC50 in the assay on DHFR (setting [14]) was […].

(Values after publication PMC6983048 (Molecules, 2019).)
